Common to all, as to assay type: cell-based
Experiment [1] deals with rat mesenchymal stem cells. In words: Adipogenesis Assay 1 (IBMX/dexamethasone priming, peptide replaces insulin; Oil Red O or BODIPY). As to conditions: for Fold adipogenic induction vs. negative control / Specific activity (activity/1000 daltons) / adipogenesis, absorption of Oil Red O at 520 nm, fold increase compared with negative control / adipogenesis, number of fat droplets relative to negative controls (image analysis): Assay 1; for adipogenesis, absorption of Oil Red O at 520 nm, fold increase compared with negative control / adipogenesis, number of fat droplets relative to negative controls (image analysis): rat bone marrow mesenchymal stem cells, n=3; for adipogenesis, absorption of Oil Red O at 520 nm, fold increase compared with negative control: 0.1-25 μg. The procedure: Reagents: (1) 3-isobutyl-1-methylxanthine (IBMX) solution: 0.5M in DMSO; (2) Insulin solution: 10 mg/mL recombinant human insulin; (3) Dexamethasone solution in 10 mM in ethanol; (4) Oil Red O (0.36% in 60% isopropanol) or BODIPY dye (BODIPY 493/503 (4,4-difluoro-1,3,5,7-tetramethyl-4-bora-3a,4a-diaza-s-indacene-8-propionic acid, succinimidyl ester) from Invitrogen at 4-10 μM).
Adipogenesis Initiation Media: mesenchymal stem cell expansion media/0.5 mM IBMX/1 μM dexamethasone. Mesenchymal stem cell expansion media is commercially available from Millipore. The IBMX Solution was diluted 1:1000 and the Dexamethasone Solution was diluted 1:10,000 in expansion media containing antibiotics and antimycotics. The prepared media was stored at 4° C.
Adipogenesis Progression Media for positive control: mesenchymal stem cell expansion media/10 μg/mL insulin. The Insulin Solution was diluted 1:1000 in the expansion media and stored at 4° C.
Experimental Adipogenesis Progression Media: mesenchymal stem cell expansion media/1-100 μg/mL RHAMM antagonist peptides.
Adipogenesis Maintenance Media: mesenchymal stem cell expansion media containing antibiotics and antimycotics.
Negative Control Media: DMEM/10% normal calf serum.
Pre-adipocyte stem cells including bone marrow mesenchymal stem cells and fibroblasts including reticular and papillary dermal fibroblasts were propagated using standard tissue culture methods. Cells were trypsinized to remove the cells from the substratum. The trypsin was neutralized and cells were counted using a hemocytometer. Cells were resuspended at 30,000 cells/mL in expansion media. […] of cell suspension was plated per well of 24-well plate, with several wells left empty for blank well staining.
Cells were incubated for 1-2 days until they reached confluency. Approximately 1.8 mL of media was removed from each well and replaced with 2 mL Adipogenesis Initiation Media. For negative control wells, expansion media only was used at this step and for subsequent media changes. For all media changes, media was replaced as gently as possible to avoid disturbing the monolayer.
Cells were incubated for 48 hours at 37° C., 5% CO2. 2 mL media was removed from each well, and replaced with 2 mL either positive control or experimental Adipogenesis Progression Media per well. Cells were again incubated for 48 hours at 37° C., 5% CO2. 2 mL of media was removed from each well and replaced with 2 mL Adipogenesis Maintenance Media per well. In addition, media was added to the empty wells reserved for blank well staining Cells were incubated for at least 48 hours at 37° C., 5% CO2. Media was replaced every 48-72 hours. Accumulation of intracellular lipid droplets continued for at least 5 days.
For quantification of Oil Red O staining, media was removed and cells were washed twice with PBS, using care to gently add the PBS. 0.5 mL Oil Red O solution was added per well of 24-well plate, including to the wells lacking cells, but containing media. Cells were incubated for 15 minutes at room temperature. The staining solution was then removed and wells were washed three times with 1 mL of phosphate buffered saline (PBS). In some experiments, following removal of the last wash, stained plates were scanned or photographed.
Adipogenesis was quantified using a spectrophotometer or fluorometer. 0.25 mL Dye Extraction Solution (isopropyl alcohol) was added per well, and the plate was set on an orbital shaker or platform rocker for 15-30 minutes. Extracted dye was transferred into a cuvette and absorbance was read in a spectrophotometer at visible range for oil red 0 or transferred to a 96-well plate and quantified in a plate reader.
For quantification of BODIPY dye uptake, media was removed and cells were washed twice with PBS, using care to gently add the PBS. Cells were then fixed in 3% paraformaldehyde, washed in PBS then incubated for 1 hour in the dark with the BODIPY solution, prepared in PBS. […]

Experiment [2] deals with human subcutaneous pre-adipocytes. Description: Differentiation of human subcutaneous pre-adipocytes. As to conditions: for adipogenesis, Oil Red O staining, absence of both insulin and PPARγ agonist: FIGS. 23, 24; for adipogenesis, extracted Oil Red O: experimental cocktail lacked PPARγ agonist and insulin. An excerpt:
As noted above, this adipogenic cocktail contained pantothenate, dexamethasone, isobutylmethylxanthine (IBMX), human insulin and a PPARγ agonist. For these experiments, the following conditions were used as negative controls: (1) Preadipocyte Medium only; (2) the adipogenic cocktail without PPARγ agonist (PPARγ-); and (3) the adipogenic cocktail without PPARγ agonist or human insulin.
The positive control for FIG. 21 was the complete adipogenic medium containing both the PPARγ agonist and insulin: The experimental cocktail contained the B peptide or the KSEVSK 6-mer, but lacked PPARγ agonist and insulin. Adipogenesis levels were quantified by measuring extracted Oil Red 0.
The following conditions were used as negative controls: (Ctr no-γ)=monolayers cultured in adipogenic cocktail but without PPARγ agonist, (Ctr no-γ, no-Ins)=monolayers cultured in adipogenic cocktail but without PPARγ agonist or human insulin. To test the adipogenic activity of the KSEVSK 6-mer and B peptides, the human pre-adipocytes were exposed to the above negative controls plus either the KSEVSK 6-mer or the B peptide at concentrations of 5 μg/ml and 20 μg/ml. Statistical analysis were performed compared to negative control. Data presented as mean±standard error (n=3)

The subject of experiment [3] is human reticular fibroblasts (HRF). In words: Transdifferentiation of primary human dermal fibroblasts, reticular. As to conditions: 5 μg/ml, peptide replaced insulin. Here is the method: (§1) The B peptide and the KSEVSK 6-mer were also tested for their adipogenic effect on primary human dermal fibroblasts from the upper (papillary) and lower (reticular) dermal layers. The primary human fibroblasts were obtained from dermatome sections of biopsies from human volunteers. Cells were cultured and exposed to adipogenic medium. In these experiments, the B peptide and the KSEVSK 6-mer replaced insulin as the adipogenic stimulus. The peptides were used at a concentration of 5 μg/ml. Adipogenesis was assessed by Oil Red O staining. […] White arrows show fat droplets.

Experiment [4] relates to human papillary fibroblasts (HPF). Description: Transdifferentiation of primary human dermal fibroblasts, papillary. To be noted: 5 μg/ml; peptide replaced insulin. The procedure:
as §1

Entries after “also recorded” stand apart in the source; their conditions may differ.

Take KLKDENSQLKSEVSK [peptide B]: in experiment [1], the “Fold adipogenic induction vs. negative control” value was 1.85; the “Specific activity (activity/1000 daltons)” value was 1.0 activity/1000 daltons; the “adipogenesis, absorption of Oil Red O at 520 nm, fold increase compared with negative control” value is given as “significantly stimulated adipogenesis as compared to the negative control”; the “adipogenesis, number of fat droplets relative to negative controls (image analysis)” value is recorded as “significantly stimulated adipogenesis as compared to the negative control”. For the same substance, the “amount at which a maximum adipogenic effect was obtained” value in experiment [1] (bone marrow mesenchymal stem cells, depending upon the screening assay used (assay 1 or 2)) lay within 1 to 5 µg. Further, in experiment [2], the “adipogenesis, Oil Red O staining, absence of both insulin and PPARγ agonist” value is “stimulates adipogenesis”; the “adipogenesis, extracted Oil Red O” value is on record as “significantly (p<0.05) increased adipogenesis above the negative control levels”. Moreover, the “transdifferentiation into adipocytes, Oil Red O staining” value (from here on “transdifferentiation into adipocytes”) in experiment [3] (listed as B peptide) is on record as “stimulated the transdifferentiation; also recorded: stimulated the trans-differentiation”. In addition, the “transdifferentiation into adipocytes” value in experiment [4] is listed as “had no effect”.

As for KSEVSK [KSEVSK 6-mer], in experiment [1], the “Fold adipogenic induction vs. negative control” value came out at 2.83; the “Specific activity (activity/1000 daltons)” value is 3.76 activity/1000 daltons; the “adipogenesis, absorption of Oil Red O at 520 nm, fold increase compared with negative control” value was “significantly stimulated adipogenesis as compared to the negative control”; the “adipogenesis, number of fat droplets relative to negative controls (image analysis)” value is given as “significantly stimulated adipogenesis as compared to the negative control”. The “specific activity compared among peptide B and 9-, 7-, 6-mer” value in experiment [1] (calculated from adipogenesis data of assays 1 and 2) is given as “highest specific activity”. Moreover, the “adipogenic activity of truncation fragments” value in experiment [1] (truncation experiments, assays 1 and 2, FIGS. 7, 8, 9) is on record as “also found to be adipogenic”. Also, the “adipogenesis, Oil Red O staining, absence of PPARγ agonist” value in experiment [2] (FIG. 22) was “stimulates adipogenesis”. Also, in experiment [2], the “adipogenesis, Oil Red O staining, absence of both insulin and PPARγ agonist” value is “stimulates adipogenesis”; the “adipogenesis, extracted Oil Red O” value is recorded as “significantly (p<0.05) increased adipogenesis above the negative control levels”. Moreover, the “transdifferentiation into adipocytes” value in experiment [3] is reported as “stimulated the transdifferentiation”. Moreover, the “transdifferentiation into adipocytes” value in experiment [4] was “had no effect”.
